Measured values from paper PMC9077236, “Gs protein peptidomimetics as allosteric modulators of the β2-adrenergic receptor” (RSC Advances, 2018).

Tests used:
[1] = CuAAC (i,i+4) side-chain stapling of azidolysine with propargylglycine or O-propargylserine; CuSO4·5H2O (1 eq), Na ascorbate (5 eq); from purified linear peptides; conditions: the molecule shown is the open-chain precursor, tBuOH/H2O 1:2, 0.5 mM, 25.0 °C
[2] = tested on: β2AR (β2AR-Δ4 construct, C265 bimane-labelled); experiment: Conformational bimane fluorescence shift assay on purified mBBr-labelled β2AR; type: biochemical; conditions: increasing concentrations of ISO, saturating at 250 μM and 500 μM
Experimental: To further investigate their pharmacological profiles, selected peptidomimetics were tested in a bimane fluorescence shift assay (see ESI ^†). […] Stimulation of purified, C265 fluorophore-labelled β2AR with increasing concentrations of ISO results in a concentration-dependent decrease in the fluorescence intensity (FI) and a red-shift of the maximum emission wavelength (λmax) of the bimane-fluorophore probe (Fig. 5A).
Bimane-fluorescence curves in presence of agonist or peptidomimetic alone or in combination were normalised to that of the receptor alone.
Conformational biman e fluorescence assay
Baculovirus es containing the β2AR-Δ4 construct (full-length β 2AR with four mutated
cystein es (C77V, C327S , C378 A and C406A10,11) were generated as pr eviousl y d escribed b y
Rosenbaum et al.12 The modi fied β 2AR wa s ex pre s sed in S f9 insect cel ls using r ecombi na nt
baculovi rus and pu rified b y M1-anti- FLAG im munoaffinit y chr omatograph y. The F LAG -
purified receptor was l abe lled with monobromobimane (mBBr) and purified b y alprenolol
affinit y chr omato graph y as described b y Yao et al. 13 with one minor change; the modified β2AR
was labelled with an excess of 10 µM mBBr (instead of equivalent amounts of β 2AR and
mBBr). […]
ligands and peptide s were subtracted from the samples. Data was analysed b y use of the […]

[3] = CuAAC (i,i+4) side-chain stapling of azidolysine with propargylglycine or O-propargylserine; CuSO4·5H2O (1 eq), Na ascorbate (5 eq); from crude linear peptides; conditions: the molecule shown is the open-chain precursor, tBuOH/H2O 1:2, 0.5 mM, 25.0 °C
[4] = target: T1, β2-adrenergic receptor (β2AR) (Homo sapiens, UniProt P07550); experiment: Membrane-based cAMP accumulation assay (HTRF), ISO-induced cAMP formation; type: biochemical
T1 construct: expressed in transfected cells; host or cells: HEK293 cells stably overexpressing β2AR; membrane fractions used
T1 sequence (P07550 whole entry, species assumed): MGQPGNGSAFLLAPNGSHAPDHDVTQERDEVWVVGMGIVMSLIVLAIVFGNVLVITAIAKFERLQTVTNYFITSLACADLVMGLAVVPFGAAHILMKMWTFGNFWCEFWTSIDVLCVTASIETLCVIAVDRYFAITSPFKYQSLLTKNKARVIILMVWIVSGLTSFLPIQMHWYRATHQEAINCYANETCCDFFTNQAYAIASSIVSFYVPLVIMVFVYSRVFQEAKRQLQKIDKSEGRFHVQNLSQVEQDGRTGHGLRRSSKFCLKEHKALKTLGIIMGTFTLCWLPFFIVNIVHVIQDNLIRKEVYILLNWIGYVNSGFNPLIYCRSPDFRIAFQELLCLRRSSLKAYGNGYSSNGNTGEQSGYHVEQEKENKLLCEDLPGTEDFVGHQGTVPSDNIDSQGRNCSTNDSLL
Experimental: To allow the peptidomimetics to interact with the intracellular G protein binding pocket they were tested in a membrane-based cAMP accumulation assay (see ESI ^†). […] The cAMP levels in absence of peptidomimetics were normalised to the basal (0%) and maximal efficacy (100%) of ISO in presence of vehicle (DMSO).
overexpressing the β2AR8 were prepared and the peptidomimetics tested as previously
peptidomimetics diluted in HBSS buffer supplemented with 20 mM HEPES pH 7.5, 0.1 %
Elmer) at room temperature (RT) for 15 min. Then isoproterenol solutions for the
prepared in ligand buffer (HBSS buffer supplemented with 20 mM HEPES pH 7.5, 0.1 %
added to the wells and incubated for 30 min at room temperature. To detect cAMP formation
the HTRF cAMP d ynamic 2 assa y kit from CisBio (cat no. 2AM4PEC) was used according
to the manufactures protocol. The absolute cAMP levels were determined using a cAMP
standard curve and norm alised to the maximal cAMP response obtained by full isoproterenol
stimulation alone. Significant differen ces b etween IS O alon e and in presence of the p eptides
were calculat ed statisticall y b y use of on e- wa y ANOVA in the GraphPad Prism software.

For `C#CCOC[C@H](NC(=O)[C@H](CCCNC(=N)N)NC(=O)[C@H](CCC(N)=O)NC(=O)[C@@H](NC(=O)[C@@H](CCCCN=[N+]=[N-])NC(=O)[C@H](CC(=O)O)NC(=O)[C@H](CCCNC(=N)N)NC(C)=O)[C@@H](C)CC)C(=O)N[C@@H](Cc1cnc[nH]1)C(=O)N[C@@H](CC(C)C)C(=O)N[C@@H](CCCNC(=N)N)C(=O)N[C@@H](CCC(N)=O)C(=O)N[C@@H](Cc1ccc(O)cc1)C(=O)N[C@@H](CCC(=O)O)C(=O)N[C@@H](CC(C)C)C(=O)N[C@@H](CC(C)C)C(=O)O` [Ac-R-D-(D-K(N3))-I-Q-R-Ser(O-propargyl)-H-L-R-Q-Y-E-L-L-OH], the ring closure, isolated yield ([1]; 23-membered ring) was 40%.
For `CC(C)NC[C@H](O)c1ccc(O)c(O)c1` [ISO, (−)-isoproterenol], the “Effect on bimane fluorescence (FI and λmax) / receptor conformation” value [2] was “induces an active receptor conformation in a concentration-dependent manner”.
Work on `C#CCOC[C@H](NC(=O)[C@H](CCCNC(=N)N)NC(=O)[C@H](CCC(N)=O)NC(=O)[C@@H](NC(=O)[C@H](CCCCN=[N+]=[N-])NC(=O)[C@H](CC(=O)O)NC(=O)[C@H](CCCNC(=N)N)NC(C)=O)[C@@H](C)CC)C(=O)N[C@@H](Cc1cnc[nH]1)C(=O)N[C@@H](CC(C)C)C(=O)N[C@@H](CCCNC(=N)N)C(=O)N[C@@H](CCC(N)=O)C(=O)N[C@@H](Cc1ccc(O)cc1)C(=O)N[C@@H](CCC(=O)O)C(=O)N[C@@H](CC(C)C)C(=O)N[C@@H](CC(C)C)C(=O)O` [Ac-R-D-K(N3)-I-Q-R-Ser(O-propargyl)-H-L-R-Q-Y-E-L-L-OH] yielded a ring closure, isolated yield ([1]; 23-membered ring, 1.0 h) of 69%.
In the case of `C#CC[C@H](NC(=O)[C@H](CCCNC(=N)N)NC(=O)[C@H](CC(C)C)NC(=O)[C@H](Cc1cnc[nH]1)NC(=O)[C@H](CCCCN=[N+]=[N-])NC(=O)[C@H](CCCNC(=N)N)NC(=O)[C@H](CCC(N)=O)NC(=O)[C@@H](NC(=O)[C@@H](NC(=O)[C@H](CC(=O)O)NC(=O)[C@H](CCCNC(=N)N)NC(C)=O)[C@@H](C)CC)[C@@H](C)CC)C(=O)N[C@@H](Cc1ccc(O)cc1)C(=O)N[C@@H](CCC(=O)O)C(=O)N[C@@H](CC(C)C)C(=O)N[C@@H](CC(C)C)C(=O)O` [Ac-R-D-I-I-Q-R-K(N3)-H-L-R-Pra-Y-E-L-L-OH], the ring closure, overall yield ([3]; 21-membered ring, 3.0 h) is reported as 10%.
`C#CC[C@H](NC(=O)[C@H](CCCC)NC(=O)[C@H](CCCNC(=N)N)NC(=O)[C@H](CCC(N)=O)NC(=O)[C@H](CCCCN=[N+]=[N-])NC(=O)[C@@H](NC(=O)[C@H](CC(=O)O)NC(=O)[C@H](CCCNC(=N)N)NC(C)=O)[C@@H](C)CC)C(=O)N[C@@H](CC(C)C)C(=O)N[C@@H](CCCNC(=N)N)C(=O)N[C@@H](CCC(N)=O)C(=O)N[C@@H](Cc1ccc(O)cc1)C(=O)N[C@@H](CCC(=O)O)C(=O)N[C@@H](CC(C)C)C(=O)N[C@@H](CC(C)C)C(=O)O` [Ac-R-D-I-K(N3)-Q-R-Nle-Pra-L-R-Q-Y-E-L-L-OH] showed a ring closure, overall yield ([3]; 21-membered ring) of 10%.
In the case of `C#CC[C@H](NC(=O)[C@H](CCCC)NC(=O)[C@H](CCCNC(=N)N)NC(=O)[C@H](CCC(N)=O)NC(=O)[C@@H](CCCCN=[N+]=[N-])NC(=O)[C@@H](NC(=O)[C@H](CC(=O)O)NC(=O)[C@H](CCCNC(=N)N)NC(C)=O)[C@@H](C)CC)C(=O)N[C@@H](CC(C)C)C(=O)N[C@@H](CCCNC(=N)N)C(=O)N[C@@H](CCC(N)=O)C(=O)N[C@@H](Cc1ccc(O)cc1)C(=O)N[C@@H](CCC(=O)O)C(=O)N[C@@H](CC(C)C)C(=O)N[C@@H](CC(C)C)C(=O)O` [Ac-R-D-I-(D-K(N3))-Q-R-Nle-Pra-L-R-Q-Y-E-L-L-OH], the ring closure, overall yield ([3]; 21-membered ring) is reported as 11%.
`C#CC[C@H](NC(=O)[C@H](CCCNC(=N)N)NC(=O)[C@H](CCC(N)=O)NC(=O)[C@@H](NC(=O)[C@H](CCCCN=[N+]=[N-])NC(=O)[C@H](CC(=O)O)NC(=O)[C@H](CCCNC(=N)N)NC(C)=O)[C@@H](C)CC)C(=O)N[C@@H](Cc1cnc[nH]1)C(=O)N[C@@H](CC(C)C)C(=O)N[C@@H](CCCNC(=N)N)C(=O)N[C@@H](CCC(N)=O)C(=O)N[C@@H](Cc1ccc(O)cc1)C(=O)N[C@@H](CCC(=O)O)C(=O)N[C@@H](CC(C)C)C(=O)N[C@@H](CC(C)C)C(=O)O` [Ac-R-D-K(N3)-I-Q-R-Pra-H-L-R-Q-Y-E-L-L-OH] showed a ring closure, isolated yield ([1]; 21-membered ring, 0.25 h) of 36%.
For `CC[C@H](C)[C@H](NC(=O)[C@H](CC(=O)O)NC(=O)[C@H](CCCNC(=N)N)NC(C)=O)C(=O)N[C@H](C(=O)N[C@@H](CCC(N)=O)C(=O)N[C@@H](CCCNC(=N)N)C(=O)N[C@H]1CCCCn2cc(nn2)C[C@@H](C(=O)N[C@@H](Cc2ccc(O)cc2)C(=O)N[C@@H](CCC(=O)O)C(=O)N[C@@H](CC(C)C)C(=O)N[C@@H](CC(C)C)C(=O)O)NC(=O)[C@H](CCCNC(=N)N)NC(=O)[C@H](CC(C)C)NC(=O)[C@H](Cc2c[nH]cn2)NC1=O)[C@@H](C)CC` [Peptide 10C], the “Maximum efficacy of ISO” value ([4]; ISO CRC in presence of 100 μM peptidomimetic, HEK293 membranes overexpressing β2AR, normalised to ISO with vehicle (100%), mean ± SEM, n = 3, * P < 0.05) was 61.0 ± 4.1* %, the “Basal level (basal cAMP level of the ISO concentration-response curve)” value ([4]; ISO CRC in presence of 100 μM peptidomimetic, HEK293 membranes overexpressing β2AR, normalised to basal (0%) and maximal efficacy (100%) of ISO with vehicle (DMSO), 15 min preincubation, 30 min RT, mean ± SEM, n = 3) was −11.0 ± 4.3% and the “Hill slope of the ISO concentration-response curve” value ([4]; in presence of 100 μM peptidomimetic, mean ± SEM, n = 3) was 0.63 ± 0.06. For the same molecule, the IC50 ([4]; in presence of an ISO concentration corresponding to EC75, 10C up to 200 μM, read-out: IC50 for blocking ISO-induced cAMP formation (estimated)) was 55 µM.
With `C#CCOC[C@H](NC(=O)[C@H](CCCC)NC(=O)[C@H](CCCNC(=N)N)NC(=O)[C@H](CCC(N)=O)NC(=O)[C@@H](CCCCN=[N+]=[N-])NC(=O)[C@@H](NC(=O)[C@H](CC(=O)O)NC(=O)[C@H](CCCNC(=N)N)NC(C)=O)[C@@H](C)CC)C(=O)N[C@@H](CC(C)C)C(=O)N[C@@H](CCCNC(=N)N)C(=O)N[C@@H](CCC(N)=O)C(=O)N[C@@H](Cc1ccc(O)cc1)C(=O)N[C@@H](CCC(=O)O)C(=O)N[C@@H](CC(C)C)C(=O)N[C@@H](CC(C)C)C(=O)O` [Ac-R-D-I-(D-K(N3))-Q-R-Nle-Ser(O-propargyl)-L-R-Q-Y-E-L-L-OH] the ring closure, overall yield ([3]; 23-membered ring) was 13%.
`C#CC[C@H](NC(=O)[C@H](CCCNC(=N)N)NC(=O)[C@H](CC(C)C)NC(=O)[C@H](Cc1cnc[nH]1)NC(=O)[C@@H](CCCCN=[N+]=[N-])NC(=O)[C@H](CCCNC(=N)N)NC(=O)[C@H](CCC(N)=O)NC(=O)[C@@H](NC(=O)[C@@H](NC(=O)[C@H](CC(=O)O)NC(=O)[C@H](CCCNC(=N)N)NC(C)=O)[C@@H](C)CC)[C@@H](C)CC)C(=O)N[C@@H](Cc1ccc(O)cc1)C(=O)N[C@@H](CCC(=O)O)C(=O)N[C@@H](CC(C)C)C(=O)N[C@@H](CC(C)C)C(=O)O` [Ac-R-D-I-I-Q-R-(D-K(N3))-H-L-R-Pra-Y-E-L-L-OH] gave a ring closure, overall yield ([3]; 21-membered ring, 1.0 h) of 26%.
With `C#CCOC[C@H](NC(=O)[C@H](CCCNC(=N)N)NC(=O)[C@H](CC(C)C)NC(=O)[C@H](Cc1cnc[nH]1)NC(=O)[C@H](CCCCN=[N+]=[N-])NC(=O)[C@H](CCCNC(=N)N)NC(=O)[C@H](CCC(N)=O)NC(=O)[C@@H](NC(=O)[C@@H](NC(=O)[C@H](CC(=O)O)NC(=O)[C@H](CCCNC(=N)N)NC(C)=O)[C@@H](C)CC)[C@@H](C)CC)C(=O)N[C@@H](Cc1ccc(O)cc1)C(=O)N[C@@H](CCC(=O)O)C(=O)N[C@@H](CC(C)C)C(=O)N[C@@H](CC(C)C)C(=O)O` [Ac-R-D-I-I-Q-R-K(N3)-H-L-R-Ser(O-propargyl)-Y-E-L-L-OH] the ring closure, overall yield ([3]; 23-membered ring, 2.0 h) was 14%.
`C#CCOC[C@H](NC(=O)[C@H](CCCNC(=N)N)NC(=O)[C@H](CC(C)C)NC(=O)[C@H](Cc1cnc[nH]1)NC(=O)[C@@H](CCCCN=[N+]=[N-])NC(=O)[C@H](CCCNC(=N)N)NC(=O)[C@H](CCC(N)=O)NC(=O)[C@@H](NC(=O)[C@@H](NC(=O)[C@H](CC(=O)O)NC(=O)[C@H](CCCNC(=N)N)NC(C)=O)[C@@H](C)CC)[C@@H](C)CC)C(=O)N[C@@H](Cc1ccc(O)cc1)C(=O)N[C@@H](CCC(=O)O)C(=O)N[C@@H](CC(C)C)C(=O)N[C@@H](CC(C)C)C(=O)O` [Ac-R-D-I-I-Q-R-(D-K(N3))-H-L-R-Ser(O-propargyl)-Y-E-L-L-OH] gave a ring closure, overall yield ([3]; 23-membered ring, 3.0 h) of 11%.
Work on `C#CCOC[C@H](NC(=O)[C@H](CCCC)NC(=O)[C@H](CCCNC(=N)N)NC(=O)[C@H](CCC(N)=O)NC(=O)[C@H](CCCCN=[N+]=[N-])NC(=O)[C@@H](NC(=O)[C@H](CC(=O)O)NC(=O)[C@H](CCCNC(=N)N)NC(C)=O)[C@@H](C)CC)C(=O)N[C@@H](CC(C)C)C(=O)N[C@@H](CCCNC(=N)N)C(=O)N[C@@H](CCC(N)=O)C(=O)N[C@@H](Cc1ccc(O)cc1)C(=O)N[C@@H](CCC(=O)O)C(=O)N[C@@H](CC(C)C)C(=O)N[C@@H](CC(C)C)C(=O)O` [Ac-R-D-I-K(N3)-Q-R-Nle-Ser(O-propargyl)-L-R-Q-Y-E-L-L-OH] yielded a ring closure, overall yield ([3]; 23-membered ring, 1.0 h) of 15%.
`C#CC[C@H](NC(=O)[C@H](CCCNC(=N)N)NC(=O)[C@H](CCC(N)=O)NC(=O)[C@@H](NC(=O)[C@@H](CCCCN=[N+]=[N-])NC(=O)[C@H](CC(=O)O)NC(=O)[C@H](CCCNC(=N)N)NC(C)=O)[C@@H](C)CC)C(=O)N[C@@H](Cc1cnc[nH]1)C(=O)N[C@@H](CC(C)C)C(=O)N[C@@H](CCCNC(=N)N)C(=O)N[C@@H](CCC(N)=O)C(=O)N[C@@H](Cc1ccc(O)cc1)C(=O)N[C@@H](CCC(=O)O)C(=O)N[C@@H](CC(C)C)C(=O)N[C@@H](CC(C)C)C(=O)O` [Ac-R-D-(D-K(N3))-I-Q-R-Pra-H-L-R-Q-Y-E-L-L-OH] gave a ring closure, isolated yield ([1]; 21-membered ring, 0.25 h) of 56%.
